Tested on: 233499-124-R-J3-PDC spheroids with HUVEC/MSC, viability
Assay: Anticancer human tumor 233499-124-R-J3-PDC patient-derived colon adenocarcinoma cell line growth inhibition [PI3K]
Settings: for IC50: curve of first compound; for viability, T/C: stronger effect = lower value
How it was run: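 Spheroid viability read-out. Co-cultures contained the tumor line plus HUVEC and human MSCs. Each agent was paired with a PI3K inhibitor (inavolisib, alpelisib, duvelisib, copanlisib) across half-log dilutions starting at clinical Cmax, or at 10 microM when Cmax was unknown.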
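Note: spheroids exposed to agents for seven days before readout.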
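Throughout, for viability, T/C: percent viability relative to DMSO vehicle control taken as 100%.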

Structure (SMILES): CC(=O)c1c(C)c2cnc(Nc3ccc(N4CCNCC4)cn3)nc2n(C2CCCC2)c1=O + CC(Nc1ncnc2nc[nH]c12)c1cc2cccc(Cl)c2c(=O)n1-c1ccccc1
- IC50 (second compound 0.0316 µM): > 100 nM
- IC50 (second compound 0.1 µM): > 100 nM
- IC50 (second compound 0.316 µM): > 100 nM
- IC50 (second compound 1 µM): > 100 nM
- IC50 (second compound 3.16 µM): > 100 nM
- IC50 (second compound 10 µM): > 100 nM
- viability, T/C (second compound 0.0316 µM, first compound 0.000316 µM): 99%
- viability, T/C (second compound 0.0316 µM, first compound 0.001 µM): 83.9%
- viability, T/C (second compound 0.0316 µM, first compound 0.00316 µM): 93.1%
- viability, T/C (second compound 0.0316 µM, first compound 0.01 µM): 99.5%
- viability, T/C (second compound 0.0316 µM, first compound 0.0316 µM): 101%
- viability, T/C (second compound 0.0316 µM, first compound 0.1 µM): 89%
- viability, T/C (second compound 0.1 µM, first compound 0.000316 µM): 92.7%
- viability, T/C (second compound 0.1 µM, first compound 0.001 µM): 99.2%
- viability, T/C (second compound 0.1 µM, first compound 0.00316 µM): 93.9%
- viability, T/C (second compound 0.1 µM, first compound 0.01 µM): 115%
- viability, T/C (second compound 0.1 µM, first compound 0.0316 µM): 101%
- viability, T/C (second compound 0.1 µM, first compound 0.1 µM): 82.6%
- viability, T/C (second compound 0.316 µM, first compound 0.000316 µM): 102%
- viability, T/C (second compound 0.316 µM, first compound 0.001 µM): 91.2%
- viability, T/C (second compound 0.316 µM, first compound 0.00316 µM): 93%
- viability, T/C (second compound 0.316 µM, first compound 0.01 µM): 92.2%
- viability, T/C (second compound 0.316 µM, first compound 0.0316 µM): 86%
- viability, T/C (second compound 0.316 µM, first compound 0.1 µM): 77.2%
- viability, T/C (second compound 1 µM, first compound 0.000316 µM): 100%
- viability, T/C (second compound 1 µM, first compound 0.001 µM): 86.9%
- viability, T/C (second compound 1 µM, first compound 0.00316 µM): 78.1%
- viability, T/C (second compound 1 µM, first compound 0.01 µM): 71.5%
- viability, T/C (second compound 1 µM, first compound 0.0316 µM): 76.1%
- viability, T/C (second compound 1 µM, first compound 0.1 µM): 81.8%
- viability, T/C (second compound 3.16 µM, first compound 0.000316 µM): 106%
- viability, T/C (second compound 3.16 µM, first compound 0.001 µM): 105%
- viability, T/C (second compound 3.16 µM, first compound 0.00316 µM): 94.2%
- viability, T/C (second compound 3.16 µM, first compound 0.01 µM): 83.8%
- viability, T/C (second compound 3.16 µM, first compound 0.0316 µM): 77.2%
- viability, T/C (second compound 3.16 µM, first compound 0.1 µM): 53.4%
- viability, T/C (second compound 10 µM, first compound 0.000316 µM): 86.3%
- viability, T/C (second compound 10 µM, first compound 0.001 µM): 103%
- viability, T/C (second compound 10 µM, first compound 0.00316 µM): 92.9%
- viability, T/C (second compound 10 µM, first compound 0.01 µM): 86.2%
- viability, T/C (second compound 10 µM, first compound 0.0316 µM): 82.4%
- viability, T/C (second compound 10 µM, first compound 0.1 µM): 68.7%

Reference: PubChem BioAssay AID1963984 (Molecular Pharmacology Branch, DTP, NCI, 2024)
